Experimental data as given in patent US11998632B2, “Oral cannabinoid compositions and methods for treating neuropathic pain” (Avicanna Inc., priority 2019, dated 2024).

Assay: Assessment of stability: cannabinoid concentrations by HPLC on stored capsules
Settings: 40-day incubation at 40° C., dark conditions

In the case of `CCCCCc1cc(O)c2c(c1)OC(C)(C)[C@@H]1CCC(C)=C[C@@H]21` [THC, Tetrahydrocannabinol], the “stability of cannabinoid in the formulations (HPLC)” value is reported as “degrades significantly”.
In the case of `C=C(C)[C@@H]1CCC(C)=C[C@H]1c1c(O)cc(CCCCC)cc1O` [CBD, cannabidiol], the “stability of cannabinoid in the formulations (HPLC)” value is reported as “remains stable”.
